Data: patent US6417176B2, “Arylsulfonanilide phosphates” (Tularik, Inc., priority 1998, dated 2002)

System: HeLa cells
Details: 72 hours of treatment, 50% growth inhibition

## 5-(Pentafluorophenylsulfonamido)-2-methoxyphenyl phosphate [Example 1]
  GI50: 15 nM
